Experimental data taken from US6399088B1, “Citric acid tri-alkylamide surfactants” (Air Products and Chemicals, Inc., priority 2000, dated 2002).
Marks after values point to notes of the source that are not given here.

How the values were obtained:
Assay type in all cases: physicochemical
[1] = Foam test based upon ASTM D 1173-53; settings: 0.1 wt % solution; for initial foam: foam height at completion of addition
Method: The foaming properties of a 0.1 wt % solutions of the tri-alkylcitramides (N,N′,N″-tri-n-propylcitramide, N, N′, N″-tri-n-butylcitramide, N, N′, N″-tri-iso-butylcitramide and N,N′,N″-tri-iso-amylcitramide) were examined using a procedure based upon ASTM D 1173-53. In this test, a 0.1 wt % solution of the citramide surfactant was added from an elevated glass pipette to a receiver containing the same solution. The foam height was measured at the completion of the addition (“Initial Foam Height”) and the time required for the foam to dissipate at the air-liquid interface (“Time to 0 Foam”) was recorded. This test provided a comparison between the foaming characteristics of the various citramides. In general, in coatings, inks, adhesives, agricultural and electronics cleaning formulations, foam is undesirable because it complicates handling and can lead to coating and print defects, and to inefficient application of materials.

[2] = Solubility limit in water
Method: (§1) The solubility limits of Examples 6 and 7 were determined by intersection of the linear portion of a surface tension/In (concentration) curve with the limiting surface tension as is described in many textbooks. Since Example 8 contained insoluble material at 0.005 wt %, the solubility limit is reported as <0.005 wt %. Also, the solubility limit of ˜10 wt % reported for Example 1 is the lowest concentration at which a significant amount of insoluble material was seen. The relative efficiency of surfactants can be obtained by comparing surface tension reduction of solutions containing the same amount of different surfactants. Such data is given for 0.1 wt % solutions of the tri-alkylcitramides at 1.0 and 6.0 b/s. The limiting surface tensions at 0.1, 1, 6 and 20 b/s represent the lowest surface tensions in water which can be achieved at the given surface creation rates for a given surfactant regardless of the amount of surfactant used and is used to evaluate the effectiveness of a surfactant. These values give information about the relative ability of a surfactant to reduce surface defects under near-equilibrium conditions (0.1 b/s) through very dynamic conditions (20 b/s). Lower surface tensions would allow the elimination of defects upon application of a formulation onto lower energy surfaces.

[3] = Dynamic surface tension of aqueous solutions, maximum-bubble pressure method; settings: for γ (0.1 wt % solution) (1 b/s) / γ (0.1 wt % solution) (6 b/s): 0.1 wt % solution in water
Method: Solutions of the citramides of Examples 1-4 in distilled water were prepared. Dynamic surface tension data were obtained using the maximum-bubble pressure method at bubble rates from 0.1 bubbles/second (b/s) to 20 b/s as described in Langmuir 1986, 2, 428-432. […] In practical terms, high bubble rates correspond to high printing speeds in lithographic printing, high spray or roller velocities in coating applications, rapid application rates for agricultural products and electronics cleaning and processing.
as §1

[4] = in water, from observed insoluble material
[5] = limiting surface tension in water, 0.1 bubbles/second
[6] = limiting surface tension in water, 1 bubble/second
[7] = limiting surface tension in water, 6 bubbles/second
[8] = limiting surface tension in water, 20 bubbles/second

| time to zero foam [1] | initial foam [1] | solubility limit ([2]; in distilled water) | solubility limit [2, 4] | γ (0.1 wt % solution) (1 b/s) ([3]; 1 b/s) | γ (0.1 wt % solution) (6 b/s) ([3]; 6 b/s) | γ limiting (0.1 b/s) [3, 5] | γ limiting (1 b/s) [3, 6] | γ limiting (6 b/s) [3, 7] | γ limiting (20 b/s) [3, 8] | relative solubility in water ([2]; in comparison to N,N′,N″-tri-iso-butylcitramide) | dynamic surface tension (0.1 b/s) ([3]; added to water at 5 wt %, material remained undissolved, 0.1 b/s) | dynamic surface tension (1 b/s) ([3]; added to water at 5 wt %, material remained undissolved, 1 b/s) | dynamic surface tension (6 b/s) ([3]; added to water at 5 wt %, material remained undissolved, 6 b/s) | dynamic surface tension (20 b/s) ([3]; added to water at 5 wt %, material remained undissolved, 20 b/s) | γ limiting (0.1 b/s) ([3]; limiting γ at 0.005 wt. % surfactant, 0.1 b/s) | γ limiting (1 b/s) ([3]; limiting γ at 0.005 wt. % surfactant, 1 b/s) | γ limiting (6 b/s) ([3]; limiting γ at 0.005 wt. % surfactant, 6 b/s) | γ limiting (20 b/s) ([3]; limiting γ at 0.005 wt. % surfactant, 20 b/s) | Compound |
| --- | --- | --- | --- | --- | --- | --- | --- | --- | --- | --- | --- | --- | --- | --- | --- | --- | --- | --- | --- |
| 10 s | 2.8 cm | ˜10 Weight % | ~10 wt % | 66.7 Dyne/cm | 67.2 Dyne/cm | 42.9 Dyne/cm | 43.1 Dyne/cm | 43.7 Dyne/cm | 44.9 Dyne/cm | – | – | – | – | – | – | – | – | – | CCCNC(=O)CC(O)(CC(=O)NCCC)C(=O)NCCC [Example 1, N,N′,N″-tri-n-propylcitramide] |
| 9 s | 1.3 cm | 0.4 Weight % | – | 51.2 Dyne/cm | 52.6 Dyne/cm | 43.6 Dyne/cm | 43.9 Dyne/cm | 44.6 Dyne/cm | 46.2 Dyne/cm | more soluble | – | – | – | – | – | – | – | – | CCCCNC(=O)CC(O)(CC(=O)NCCCC)C(=O)NCCCC [Example 2, N,N′,N″-tri-n-butylcitramide] |
| 10 s | 1.0 cm | 0.2 Weight % | – | 51.8 Dyne/cm | 52.5 Dyne/cm | 46.6 Dyne/cm | 46.8 Dyne/cm | 47.3 Dyne/cm | 48.4 Dyne/cm | – | – | – | – | – | – | – | – | – | CC(C)CNC(=O)CC(O)(CC(=O)NCC(C)C)C(=O)NCC(C)C [Example 3, N,N′,N″-tri-iso-butylcitramide] |
| 2 s | 1.3 cm | <0.005 Weight % | < 0.005 wt % | 63.3 Dyne/cm | 66.6 Dyne/cm | – | – | – | – | – | 45.7 dyne/cm | 45.9 dyne/cm | 46.4 dyne/cm | 47.4 dyne/cm | 51.6^c Dyne/cm | 62.6^c Dyne/cm | 67.0^c Dyne/cm | 71.4^c Dyne/cm | CC(C)CCNC(=O)CC(O)(CC(=O)NCCC(C)C)C(=O)NCCC(C)C [Example 4, N,N′,N″-tri-iso-amylcitramide] |
